Results from patent US8293726B2, “Treatment of cancer and other diseases” (Vianova Labs, Inc., priority 2005, dated 2012).
Where “and” joins values, the source holds several entries; their conditions need not be identical. Equal entries are not always repeated.

Tests used:
[1] = test system: experimentally induced large B-cell lymphoma; assay: Therapeutic efficacy in mice with experimentally induced large B-cell lymphoma (blood tests, LDH, body weight, autopsy); assay type: in vivo; set-up: Lymphocytes: unit not given here; settings: for LDH: blood plasma; for Total protein: blood serum; for Lymphocytes: blood
Protocol: Investigations were carried out on immunocompromised laboratory mice with experimentally-induced large B-cell lymphoma using hematological, immunological, biochemical, anatomical, and cytological methods. Two groups of 15 mice were employed. In the first group, 24-ethyl-cholestane-3β,5α,6α-triol was administered orally daily at a dosage of 5 mg/kg. The second group served as the control. The following parameters of therapeutic efficacy were compared: dynamics of LDH activity in the blood plasma, content of total protein, and general clinical blood test results.
As is seen from Table 2, statistically important differences (P<0.05) between animals with lymphoma and healthy animals were marked by the amount of leukocytes, hemoglobin, by color indication, the absolute number of lymphocytes in blood, as well as the content of total protein in the blood serum and the LDH activity in blood plasma. These changes characterize the presence of disorders in the lymphoid component of blood formation, indicate the presence of intensive cytolysis in the process of carcinogenesis (due to increased LDH), and show the presence of processes suppressing biosynthesis of protein.
The total content of protein in the blood serum and the hemoglobin concentration are increased. At the same time, a decrease in LDH activity in the blood plasma and in the number of lymphocytes was observed (FIG. 5).

[2] = test system: human tumor cell line: large B-cell lymphoma; assay: Human tumor cell lines in immunocompromised mice (intraperitoneal, ascitis): lymphoma; assay type: in vivo; settings: treated mice (4, 2 and 0.8 mg/kg/day orally for 10 days)
Protocol: (§1) Immunocompromised mice were used for this experiment. Mice were inbred in a sterile environment and fed ad libitum. Four groups of 40 mice, weighing approximately 20 g each (range: 17-25 g), were used for each tumor type. The human tumor cell lines used were the following: large B-cell lymphoma; squamous-cell carcinoma of the lung; ductal carcinoma breast; and adenocarcinoma of the lung. A suspension of tumor cells was injected in the peritoneum of immunocompromised mice. Following this, mice were examined and weighed daily. After 6-8 days, we observed the development of abdominal carcinomatosis and […]. At day 18, we observed the development of an abundant […], which increased the weight of the mice by approximately 20 g. At that time, mice were divided into four groups of 10. […] Assessment of tumor cell concentration in the […] abdominal metastases were measured on day 18 and every 2 days thereafter. In all mice, prior to treatment, we observed an increase in LDH ESR (>100) and a decrease in the hematocrit. Control (untreated) mice all died between day 21 and day 25 in all tumor types. […] Complete response: Weight (and ascetic) loss and the disappearance of all abdominal metastatic nodules and tumor cells. Partial response: Weight (and ascitic) loss and at least 25% decrease of tumor cell in the […] least 25% decrease in measured abdominal metastatic nodules. […] Progressive disease: When we observed an increase in […] or tumor volume or death of the animal.

[3] = test system: poorly differentiated lobular carcinoma of the right breast; assay: Patient case: stage IV lobular breast carcinoma with liver, spleen and bone metastases; assay type: in vivo, human
Excerpt: A patient with a past medical history of anemia and mild chronic renal failure due to retroperitoneal fibrosis presented with a stage IV poorly differentiated lobular carcinoma of the right breast and liver, spleen and bone metastases. […] Three days after treatment, we observed a decrease in LDH level from 450 to 204.

[4] = test system: breast cancer stage IV with lung and bone metastases; assay: Patient case: breast cancer stage IV with lung and bone metastases, CA 15-3; assay type: in vivo, human; settings: for CA 15-3: Femara, Decapeptyl
Excerpt: A patient presented with breast cancer stage IV with lung and bone metastases. They previously underwent a left radical mastectomy for a stage 2 colloidal mucinous adenocarcinoma Hormone receptors and c-erb B were negative. They received adjuvant chemotherapy (FAC) followed by radiotherapy. Later, a sternal bone metastasis appeared and was resected. […] They also developed lung metastases up to 4 cm size. They received chemotherapy with taxotere, navelbine, and pamidronate, followed by tamoxifen. This treatment gave an almost complete response in the lungs. Tamoxifen was replaced by Femara. The patient received radiotherapy on the spine (T4 and T1 2) and Zometa is administered along with Femara. […] Zometa and Femara were continued and Decapeptyl was added to the treatment.

[5] = test system: human tumor cell line: adenocarcinoma of the lung; assay: Human tumor cell lines in immunocompromised mice (intraperitoneal, ascitis): lung adenocarcinoma; assay type: in vivo; settings: treated mice (4, 2 and 0.8 mg/kg/day orally for 10 days)
Protocol: as §1

[6] = test system: pancreatic adenocarcinoma; assay: Patient case: pancreatic adenocarcinoma, CA 19-9; assay type: in vivo, human; set-up: CA 19-9: unit not given beside the values
Excerpt: A diabetic and insulin dependent patient with a past history of lymphoma presented with a 3 cm tumor in the head of pancreas and a suspicion of hepatic metastasis.

[7] = 5 mg/kg orally daily, course of treatment
[8] = first treated group, M (arithmetic mean of 3 animals)
[9] = first treated group, individual animals
[10] = second treated group, M (arithmetic mean of 3 animals)
[11] = second treated group, individual animals
[12] = third treated group, M (arithmetic mean of 4 animals)
[13] = third treated group, individual animals

## CC[C@H](CC[C@@H](C)[C@H]1CC[C@H]2[C@@H]3C[C@H](O)[C@@]4(O)C[C@@H](O)CC[C@]4(C)[C@H]3CC[C@]12C)C(C)C [24-ethyl-cholestane-3β,5α,6α-triol]
[1]; [7]
  hemoglobin concentration: increased
  number of lymphocytes: decrease
  total content of protein in the blood serum: increased
[1]; 5 mg/kg orally daily, sixteen days
  autopsy: liver, kidney and spleen tissues, treated animals with lymphoma vs healthy mice: no differences
[1]; [8]
  LDH: 962.00 U/L
  Total protein: 53.63 g/L
  Lymphocytes: 9.15
  Body, weight: 18.04 g
  neutrophiles/lymphocytes: 0.28
[1]; [9]
  LDH: 1056 U/L and 974 U/L and 856 U/L
  Total protein: 51.5 g/L and 52.6 g/L and 56.8 g/L
  Body, weight: 18.27 g and 17.86 g and 18.00 g
[1]; [10]
  LDH: 749.7 U/L
  Total protein: 54.73 g/L
  Lymphocytes: 7.523
  Body, weight: 18.2 g
[1]; [11]
  LDH: 698 U/L and 753 U/L and 798 U/L
  Total protein: 52.9 g/L and 54.5 g/L and 56.8 g/L
  Body, weight: 18.28 g and 18.36 g and 17.97 g
[1]; [12]
  LDH: 673 U/L
  Total protein: 57.625 g/L
  Lymphocytes: 7.464
  Body, weight: 18.3775 g
  neutrophiles/lymphocytes: 0.3255
[1]; [13]
  LDH: 759 U/L and 583 U/L and 697 U/L and 653 U/L
  Total protein: 56.5 g/l (2×) and 57.8 g/l and 59.7 g/l
  Body, weight: 18.53 g and 18.12 g and 18.26 g and 18.60 g
[1]; by the sixteenth day of treatment, some animals
  LDH level in some animals: reached the level of healthy animals
[1]; day 16, treated vs untreated diseased mice
  Body, weight: tendency to a gain in mass
[1]; diseased mice, 5 mg/kg orally daily, by the sixteenth day of treatment
  decrease of LDH activity in blood plasma: 42.3%
[2]
  Complete Remission: 80%
  Partial Remission: 10%
  Progressive Disease: 0%
  Stable Disease: 10%
  Symptomatic Response: 100%
[3]; After LC (five months), 60 mg/day, Before LC 125
  CA 125: 69
[3]; After LC (five months), 60 mg/day, Before LC 237
  CA 15-3: 86
[3]; after treatment, 60 mg/day
  renal failure and anemia: improved
  spleen metastasis on CT scan: regressed
  total Body MRI: complete liver and spleen response
[3]; after treatment, regressed from 5
  primitive breast mass on ultrasound: 3 cm
[3]; five months after treatment commenced, 60 mg/day
  liver enzymes including LDH: returned to normal
[3]; three days after treatment, 60 mg/day, decrease from 450
  LDH level: 204
[4]; Month 5, 60 mg/day with Zometa, Month 0 prior to treatment 277 (nl < 35)
  CA 15-3: 156 U
[4]; Month 6, 60 mg/day with Zometa
  CA 15-3: 85 U and 52 U
[4]; Month 14, 60 mg/day with Zometa
  CA 15-3: 24 U
[4]; Month 16, 60 mg/day with Zometa
  CA 15-3: 19.5 U
[4]; two weeks after the beginning of LC
  symptoms: totally asymptomatic
[5]
  Complete Remission: 40%
  Partial Remission: 20%
  Progressive Disease: 10%
  Stable Disease: 30%
  Symptomatic Response: 100%
[6]; Day 1, 50 mg/day, Day 0 prior to treatment 884 (nl < 37)
  CA 19-9: 793
[6]; Day 32, 50 mg/day
  CA 19-9: 675
[6]; Day 59, 50 mg/day (dose then increased to 60 mg/day)
  CA 19-9: 1127
[6]; Day 128, 60 mg/day
  CA 19-9: 545
[6]; Day 200 of therapy, 3 cm tumor in the head of pancreas before
  CT scan of the abdomen, pancreas: no masses seen
